Reference: US20230279018A1, “AP[…] INHIBITION” (priority 2020, published 2023)

Key:
HscFRS [1] = target: T1, HscFRS (Homo sapiens, UniProt Q9Y285); assay: malachite green-based aminoacylation assay, HscFRS; assay type: biochemical; conditions: aminoacylation activity
T1 sequence (Q9Y285 1-508): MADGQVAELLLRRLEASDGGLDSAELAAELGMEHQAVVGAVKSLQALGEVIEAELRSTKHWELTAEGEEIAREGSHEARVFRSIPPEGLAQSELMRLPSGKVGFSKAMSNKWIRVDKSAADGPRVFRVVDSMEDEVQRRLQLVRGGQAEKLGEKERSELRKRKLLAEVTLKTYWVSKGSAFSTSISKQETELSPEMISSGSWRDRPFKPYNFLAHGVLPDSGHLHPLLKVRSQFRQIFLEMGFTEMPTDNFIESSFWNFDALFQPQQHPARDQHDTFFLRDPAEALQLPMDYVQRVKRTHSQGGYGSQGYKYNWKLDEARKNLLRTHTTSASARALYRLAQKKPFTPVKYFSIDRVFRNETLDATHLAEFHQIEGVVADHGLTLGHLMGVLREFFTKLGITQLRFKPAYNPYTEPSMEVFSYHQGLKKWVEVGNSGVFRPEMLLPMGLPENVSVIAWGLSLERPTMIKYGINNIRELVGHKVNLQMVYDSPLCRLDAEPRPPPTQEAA
T1 sequence (Q9NSD9 1-589 partner): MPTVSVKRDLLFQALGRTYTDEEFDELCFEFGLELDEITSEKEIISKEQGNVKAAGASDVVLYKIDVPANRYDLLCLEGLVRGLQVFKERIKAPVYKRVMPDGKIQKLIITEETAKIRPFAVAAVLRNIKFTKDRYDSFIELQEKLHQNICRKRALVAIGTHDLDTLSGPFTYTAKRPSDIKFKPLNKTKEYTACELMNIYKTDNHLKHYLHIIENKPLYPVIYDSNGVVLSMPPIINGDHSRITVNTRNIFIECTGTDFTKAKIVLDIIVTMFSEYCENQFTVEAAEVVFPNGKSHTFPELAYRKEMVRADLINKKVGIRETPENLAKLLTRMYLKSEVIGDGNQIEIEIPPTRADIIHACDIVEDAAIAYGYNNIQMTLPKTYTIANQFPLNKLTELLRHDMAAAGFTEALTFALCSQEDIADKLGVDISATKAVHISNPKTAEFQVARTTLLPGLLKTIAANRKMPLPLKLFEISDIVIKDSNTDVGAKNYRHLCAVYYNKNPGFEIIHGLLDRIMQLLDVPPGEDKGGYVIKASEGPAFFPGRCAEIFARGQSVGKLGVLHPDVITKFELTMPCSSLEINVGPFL
Excerpt: (§1) EC50 assays were run as described in Int'l Pub Nos. WO 2015070204, WO 2018175385, and Kato, N, et al. Nature 538 (2016): 344-349, which are hereby incorporated by reference in its entirety. The inhibition of the aminoacylation activity of Pf (Plasmodium falciparum), Pv (Plasmodium vivax), Hs (Human) and Pf-Mut (L550V) cFRS enzymes by Compound 1 are illustrated in FIG. 1.
The enzymatic activity of purified heterodimeric PfcFRS using malachite green-based aminoacylation assays with substrates L-Phe and ATP was also measured as described in Cestari, I. et al., J Biomol. Screen. 18 (2013): 490-497 and Kato, N, et al. Nature 538 (2016): 344-349, which are hereby incorporated by reference in its entirety. […] Enzymatic reactions (50 μl total volume) were performed in clear, flat-bottomed, 96-well plates (Costar 96-well standard microplates). The reaction mixture was incubated for 2 h at 37° C. The reaction was stopped by adding 12.5 μl of malachite green solution to the reaction mixture and levels of inorganic phosphate (Pi) were detected after incubation of 5 min at room temperature. Absorbance was the measured at 620 nm using a Spectramax M2 (Molecular Devices). Reactions without FRS enzyme were performed as background controls, values of which were subtracted from the reactions with enzyme. […]

HscFRS [2] = target: T1, HscFRS; assay: Surface Plasmon Resonance binding, HscFRS; conditions: SPR, 25° C., PBS pH 7.4, 5% DMSO; read-out: cFRS Kd, Hs
Procedure: Surface Plasmon Resonance experiments to evaluate the binding of Compound 1 to proteins were carried out on a Biacore T200 instrument (GE Healthcare) at 25° C. The binding experiments were performed in buffer 10 mM phosphate buffered saline (PBS), pH 7.4, containing 5% dimethyl sulfoxide (DMSO). The flow system was primed with the running buffer before the initiation of the experiment. Both PfcFRS and HscFRS were immobilized to Sensor Chip CM5 by standard amine coupling chemistry using N-hydroxysuccinimide (NHS) and ethyl(dimethylaminopropyl) carbodiimide (EDC), to an immobilization level of approximately 1500 RU. The binding experiments were carried out in a single cycle kinetics mode. Compound 1 was serially diluted in running buffer, and injected at a flow rate of 60 μl min^−1 across both surface for 60 s and dissociation were set up for 120 s. The analysis was done using Biaevaluation (GE Healthcare) and GraphPad Prism 7 software (GraphPad Software Inc, USA). […] The equilibrium dissociation constants (Kd) were determined by plotting the measured response (Req) as a function of the analyte concentration. […] Measured sensograms illustrating the binding of various concentrations of Compound 1 to the protein are shown in FIG. 3B (PfcFRS) and 3C (HscFRS) including both the measured data and the 1:1 binding model fit.

Pf Dd2 = Pf Dd2 growth inhibition assay; assay type: cell-based, Plasmodium falciparum
Excerpt: as §1

`COC[C@@H]1[C@H](c2ccc(C#Cc3ccccc3)cc2)[C@@H]2CN(C(=O)Nc3ccc(OC4CC4)cc3)C[C@@H](O)[C@@H](O)CN12` [Compound 1, (3S,4R,8R,9R,10S)—N-(4-cyclopropoxyphenyl)-3,4-dihydroxy-10-(methoxymethyl)-9-(4-(phenylethynyl)phenyl)-1,6-diazabicyclo[6.2.0]decane-6-carboxamide] gave an IC50 (HscFRS [1]) of 12 µM, a Kd (HscFRS [2]) of 16 µM and an EC50 (Pf Dd2; Plasmodium falciparum, DD2, read-out: PfDd2 growth inhibition EC50) of under 0.001 µM. For the same compound, the “efficacy by EC50 Pf Dd2 growth inhibition relative to comparator” value (Pf Dd2; versus (3S,4R,8R,9S,10S)-10-((dimethylamino)methyl) analogue) was “three fold better efficacy”.
